Test results taken from patent publication EP1283044A2, “Injectable ready-to-use solutions containing an antitumor anthracycline glycoside” (Pharmacia Italia S.p.A., priority 1986, dated 1988).
Where a name gives a salt, the structure may show the parent alone. Each block holds one compound with its values, some of them ahead of it.

Key:
[1] = pH-stability profile at 55°C of epirubicin.HCl 2 mg/ml solutions in Water for Injection, 0.9% saline or 5% dextrose: HPLC assay, pH, Kobs; type: physicochemical
Protocol: Each solution was filtered through a 0.22 µm microporous membrane under nitrogen pressure. 5.0 ml of each solution were stored at 55°C in glass vials of glass type I, 8ml top capacity vial, Teflon (Trade Mark)-faced chlorobutyl rubber bung, aluminium seal.
The doxorubicin.HCl assays are the mean of three independent determinations performed by the US Pharmacopoeia (USP high performance liquid chromatography (HPLC) method (USP XXI)).
Solutions of epirubicin were prepared in the same fashion as the corresponding doxorubicin solutions hereinbefore. They were then tested for stability in the same way. The results are presented in Tables 32 to 61 below and illustrated in Figures 4 to 6.

[2] = Shelf-life (t90%) forecast, Arrhenius approach, doxorubicin.HCl 2 mg/ml pH 3.0 in 5% dextrose; type: physicochemical; conditions: 2 mg/ml pH 3.0 solution in 5% dextrose; for t90%: calculated shelf-life; for Kobs x 10^3: observed
Protocol: The solution was filtered through a 0.22 µm microporous membrane under nitrogen pressure. 5.0 ml aliquots were stored at: • (a) 60°C for 8 days, • (b) 55°C for 28 days, • (c) 45°C for 28 days, and • (d) 35°C for 28 days in glass vials of glass type I, 8ml top capacity vial, Teflon-faced chlorobutyl rubber bung, aluminium seal.
(§1) The Arrhenius equation for the degradation process was calculated from the Kobs obtained from the different temperatures taken in account for the testing (Table 30). Applying the equation, the rate constants for the pseudo-first order reactions at 4°C, 8°C, 15°C and 27°C were calculated, together with the expected shelf-life (t90%) at these temperatures.

[3] = Shelf-life (t90%) forecast, Arrhenius approach, doxorubicin.HCl 2 mg/ml pH 3.0 in 0.9% sodium chloride; type: physicochemical; conditions: 2 mg/ml pH 3.0 solution in 0.9% NaCl; for K x 10^3: calculated from Arrhenius equation; for t90%: calculated shelf-life; for Kobs x 10^3: observed
Protocol: (§2) The solution was filtered through a 0.22 µm microporous membrane under nitrogen pressure. 5.0 ml aliquots were stored at: • (a) 60°C for 4 days, • (b) 55°C for 11 days, • (c) 45°C for 21 days, and • (d) 35°C for 28 days in glass vials of glass type I, 8ml top capacity vial, Teflon-faced chlorobutyl rubber bung, aluminium seal. At predetermined times the vials were analysed for doxorubicin.HCl assay and pH.
as §1, with “28).” for “30).”

[4] = Long term stability of doxorubicin.HCl 2 mg/ml solution in 0.9% sodium chloride at pH 3.7; conditions: batch TF/23256, 0.9% sodium chloride
[5] = Shelf-life (t90%) forecast, Arrhenius approach, doxorubicin.HCl 2 mg/ml sterile water solution pH 3.0; type: physicochemical; conditions: for K x 10^3: 2 mg/ml sterile water solution pH 3.0, calculated from Arrhenius equation; for t90%: 2 mg/ml sterile water solution pH 3.0, calculated shelf-life; for Kobs x 10^3: 2 mg/ml sterile water solution pH 3.0, observed
Protocol: as §2, with “55°C” for “60°C”, “21” for “4”, “45°C and 35°C” for “55°C”, “28” for “11 days, • (c) 45°C for 21”, “(c) 27°C” for “(d) 35°C”, “90 days.” for “28 days”
as §1, with “8).” for “30).”, “(t90%)at” for “(t90%) at”

Kobs x 10^3 ([1]; 2 mg/ml in 0.9% Sodium Chloride Injection, Acetate (I = 0.05) pH 4.0, 55°C): 124.8 1/days
Kobs x 10^3 ([1]; 2 mg/ml in 0.9% Sodium Chloride Injection, Acetate (I= 0.05) pH 5.0, 55°C): 318.1 1/days
Kobs x 10^3 ([1]; 2 mg/ml in 0.9% Sodium Chloride Injection, Formate (I = 0.05) pH 3.5, 55°C): 124.5 1/days
Kobs x 10^3 ([1]; 2 mg/ml in 0.9% Sodium Chloride Injection, Glycine-HCl (I = 0.05) pH 2.0, 55°C): 168.9 1/days
Kobs x 10^3 ([1]; 2 mg/ml in 0.9% Sodium Chloride Injection, Glycine-HCl (I = 0.05) pH 2.5, 55°C): 97.3 1/days
Kobs x 10^3 ([1]; 2 mg/ml in 0.9% Sodium Chloride Injection, Glycine-HCl (I = 0.05) pH 3.0, 55°C): 84.8 1/days
Kobs x 10^3 ([1]; 2 mg/ml in 0.9% Sodium Chloride Injection, HCl-KCl (I = 0.05) pH 1.5, 55°C): 343.2 1/days
Kobs x 10^3 ([1]; 2 mg/ml in 5% Dextrose solution, Acetate (I = 0.05) pH 4.0, 55°C): 150.6 1/days
Kobs x 10^3 ([1]; 2 mg/ml in 5% Dextrose solution, Acetate (I = 0.05) pH 5.0, 55°C): 225.7 1/days
Kobs x 10^3 ([1]; 2 mg/ml in 5% Dextrose solution, Formate (I = 0.05) pH 3.5, 55°C): 89.1 1/days
Kobs x 10^3 ([1]; 2 mg/ml in 5% Dextrose solution, Glycine-HCl (I = 0.05) pH 2.0, 55°C): 106.9 1/days
Kobs x 10^3 ([1]; 2 mg/ml in 5% Dextrose solution, Glycine-HCl (I = 0.05) pH 2.5, 55°C): 81.1 1/days
Kobs x 10^3 ([1]; 2 mg/ml in 5% Dextrose solution, Glycine-HCl (I = 0.05) pH 3.0, 55°C): 70.9 1/days
Kobs x 10^3 ([1]; 2 mg/ml in 5% Dextrose solution, HCl-KCl (I = 0.05) pH 1.5, 55°C): 288.1 1/days
Kobs x 10^3 ([1]; 2 mg/ml in Water for Injection, Acetate (I = 0.05) pH 4.0, 55°C): 376.7 1/days
Kobs x 10^3 ([1]; 2 mg/ml in Water for Injection, Acetate (I = 0.05) pH 5.0, 55°C): 430.4 1/days
Kobs x 10^3 ([1]; 2 mg/ml in Water for Injection, Fermate (I = 0.05) pH 3.5, 55°C): 125.4 1/days
Kobs x 10^3 ([1]; 2 mg/ml in Water for Injection, Glycine-HCl (I = 0.05) pH 2.0, 55°C): 79.0 1/days
Kobs x 10^3 ([1]; 2 mg/ml in Water for Injection, Glycine-HCl (I = 0.05) pH 2.5, 55°C): 55.1 1/days
Kobs x 10^3 ([1]; 2 mg/ml in Water for Injection, Glycine-HCl (I = 0.05) pH 3.0, 55°C): 66.8 1/days
Compound: COc1cccc2c1C(=O)c1c(O)c3c(c(O)c1C2=O)C[C@@](O)(C(=O)CO)C[C@@H]3O[C@H]1C[C@H](N)[C@@H](O)[C@H](C)O1 [epirubicin.HCl, 4'-epi-doxorubicin]

t90% ([2]; 4°C): 3,218 days
t90% ([2]; 8°C): 1,628 days
t90% ([2]; 15°C): 516 days
t90% ([2]; 27°C): 82 days
Kobs x 10^3 ([2]; 35°C): 4.190 1/days
Kobs x 10^3 ([2]; 45°C): 14.55 1/days
Kobs x 10^3 ([2]; 55°C): 58.11 1/days
Kobs x 10^3 ([2]; 60°C): 102.6 1/days
K x 10^3 ([3]; 4°C): 0.017 1/days
K x 10^3 ([3]; 8°C): 0.037 1/days
K x 10^3 ([3]; 15°C): 0.137 1/days
K x 10^3 ([3]; 27°C): 1.112 1/days
t90% ([3]; 4°C): 6,166 days
t90% ([3]; 8°C): 2,838 days
t90% ([3]; 15°C): 768 days
t90% ([3]; 27°C): 94 days
Kobs x 10^3 ([3]; 35°C): 3.89 1/days
Kobs x 10^3 ([3]; 45°C): 21.61 1/days
Kobs x 10^3 ([3]; 55°C): 75.90 1/days
Kobs x 10^3 ([3]; 60°C): 164.9 1/days
% stability ([4]; pH 3.7, 8°C, 0 months): 100.0%
Doxorubicin.HCl assay ([4]; pH 3.7, 8°C, 0 months): 2.064 mg/mL
pH ([4]; pH 3.7, 8°C, 0 months): 3.7
% stability ([4]; pH 3.7, 8°C, 1 month): 99.3%
Doxorubicin.HCl assay ([4]; pH 3.7, 8°C, 1 month): 2.054 mg/mL
pH ([4]; pH 3.7, 8°C, 1 month): 3.7
% stability ([4]; pH 3.7, 8°C, 3 months): 100.0%
Doxorubicin.HCl assay ([4]; pH 3.7, 8°C, 3 months): 2.063 mg/mL
pH ([4]; pH 3.7, 8°C, 3 months): 3.6
% stability ([4]; pH 3.7, 15°C, 0 months): 100.0%
Doxorubicin.HCl assay ([4]; pH 3.7, 15°C, 0 months): 2.064 mg/mL
pH ([4]; pH 3.7, 15°C, 0 months): 3.7
% stability ([4]; pH 3.7, 15°C, 1 month): 100.5%
Doxorubicin.HCl assay ([4]; pH 3.7, 15°C, 1 month): 2.073 mg/mL
pH ([4]; pH 3.7, 15°C, 1 month): 3.7
% stability ([4]; pH 3.7, 15°C, 3 months): 98.4%
Doxorubicin.HCl assay ([4]; pH 3.7, 15°C, 3 months): 2.029 mg/mL
pH ([4]; pH 3.7, 15°C, 3 months): 3.6
% stability ([4]; pH 3.7, 27°C, 0 months): 100.0%
Doxorubicin.HCl assay ([4]; pH 3.7, 27°C, 0 months): 2.064 mg/mL
pH ([4]; pH 3.7, 27°C, 0 months): 3.7
% stability ([4]; pH 3.7, 27°C, 1 month): 91.5%
Doxorubicin.HCl assay ([4]; pH 3.7, 27°C, 1 month): 1.888 mg/mL
pH ([4]; pH 3.7, 27°C, 1 month): 3.6
% stability ([4]; pH 3.7, 27°C, 3 months): 74.9%
pH ([4]; pH 3.7, 27°C, 3 months): 3.3
K x 10^3 ([5]; 4°C): 0.019 1/days
K x 10^3 ([5]; 8°C): 0.038 1/days
K x 10^3 ([5]; 15°C): 0.130 1/days
K x 10^3 ([5]; 27°C): 0.918 1/days
t90% ([5]; 4°C): 5,652 days
t90% ([5]; 8°C): 2,745 days
t90% ([5]; 15°C): 810 days
t90% ([5]; 27°C): 115 days
Kobs x 10^3 ([5]; 27°C): 0.850 1/days
Kobs x 10^3 ([5]; 35°C): 3.506 1/days
Kobs x 10^3 ([5]; 45°C): 12.790 1/days
Kobs x 10^3 ([5]; 55°C): 49.340 1/days
Compound: COc1cccc2c1C(=O)c1c(O)c3c(c(O)c1C2=O)C[C@@](O)(C(=O)CO)C[C@@H]3O[C@H]1C[C@H](N)[C@H](O)[C@H](C)O1 [Doxorubicin·HCl, doxorubicin]
